According to article PMC5787524, “Discovery of a FLT3 inhibitor LDD1937 as an anti-leukemic agent for acute myeloid leukemia” (Oncotarget, 2017):

Key:
[1] = test system: PC-3 cells; assay: Cell viability / growth inhibition (EZ-Cytox), PC-3; format: cell-based; settings: Homo sapiens, Table 2, 72 h
Experimental: (§1) MV-4-11 human acute myeloid leukemia cells were purchased from the American Type Culture Collection (ATCC, Rockville, MD, USA, CRL-9591), and the cells were cultured in IMDM medium (Sigma Co., St. Louis, MO, USA) supplemented with 10% fetal bovine serum, 1% penicillin/streptomycin and 4 mM L-glutamine (Life Technology, Grand Island, NY). Jurkat (human acute T lymphocytic leukemia, ATCC TIB-152) and K562 (human chronic myelogenous leukemia, ATCC CCL-243) cells were cultured in RPMI-1640 (Sigma Co.), and MCF7 (human breast adenocarcinoma, ATCC HTB-22) and PC-3 (human prostate adenocarcinoma, ATCC CRL-1435) cells were cultured in DMEM (Sigma Co.) medium supplemented with 10% fetal bovine serum and 1% penicillin/streptomycin. The cultured cells were incubated at 37°C with 5% CO2. Cell viability was assessed with a tetrazolium-based assay using the EZ-Cytox Cell Viability Assay kit (DaeilLab, Korea). Briefly, 2,000 ∼ 15,000 cells were plated in 96-well flat bottom plates in 100 µl of medium. The next day, the cells were treated with compounds along with dimethyl sulfoxide (DMSO, Fisher, Waltham, MA, USA) as a negative control. […] After incubation, the optical density (OD) was measured at a wavelength of 450 nm with a Victor multilabel reader (Perkin Elmer, Waltham, MA, USA). The IC50 was calculated with nonlinear regression using Prism version 5.01 (GraphPad, La Jolla, CA, USA).

[2] = biological target: T1, JAK3 (Homo sapiens, UniProt P52333); assay: In vitro JAK3 kinase assay (HTRF); format: biochemical; settings: mean ± S.D.
T1 sequence (P52333 1-1124): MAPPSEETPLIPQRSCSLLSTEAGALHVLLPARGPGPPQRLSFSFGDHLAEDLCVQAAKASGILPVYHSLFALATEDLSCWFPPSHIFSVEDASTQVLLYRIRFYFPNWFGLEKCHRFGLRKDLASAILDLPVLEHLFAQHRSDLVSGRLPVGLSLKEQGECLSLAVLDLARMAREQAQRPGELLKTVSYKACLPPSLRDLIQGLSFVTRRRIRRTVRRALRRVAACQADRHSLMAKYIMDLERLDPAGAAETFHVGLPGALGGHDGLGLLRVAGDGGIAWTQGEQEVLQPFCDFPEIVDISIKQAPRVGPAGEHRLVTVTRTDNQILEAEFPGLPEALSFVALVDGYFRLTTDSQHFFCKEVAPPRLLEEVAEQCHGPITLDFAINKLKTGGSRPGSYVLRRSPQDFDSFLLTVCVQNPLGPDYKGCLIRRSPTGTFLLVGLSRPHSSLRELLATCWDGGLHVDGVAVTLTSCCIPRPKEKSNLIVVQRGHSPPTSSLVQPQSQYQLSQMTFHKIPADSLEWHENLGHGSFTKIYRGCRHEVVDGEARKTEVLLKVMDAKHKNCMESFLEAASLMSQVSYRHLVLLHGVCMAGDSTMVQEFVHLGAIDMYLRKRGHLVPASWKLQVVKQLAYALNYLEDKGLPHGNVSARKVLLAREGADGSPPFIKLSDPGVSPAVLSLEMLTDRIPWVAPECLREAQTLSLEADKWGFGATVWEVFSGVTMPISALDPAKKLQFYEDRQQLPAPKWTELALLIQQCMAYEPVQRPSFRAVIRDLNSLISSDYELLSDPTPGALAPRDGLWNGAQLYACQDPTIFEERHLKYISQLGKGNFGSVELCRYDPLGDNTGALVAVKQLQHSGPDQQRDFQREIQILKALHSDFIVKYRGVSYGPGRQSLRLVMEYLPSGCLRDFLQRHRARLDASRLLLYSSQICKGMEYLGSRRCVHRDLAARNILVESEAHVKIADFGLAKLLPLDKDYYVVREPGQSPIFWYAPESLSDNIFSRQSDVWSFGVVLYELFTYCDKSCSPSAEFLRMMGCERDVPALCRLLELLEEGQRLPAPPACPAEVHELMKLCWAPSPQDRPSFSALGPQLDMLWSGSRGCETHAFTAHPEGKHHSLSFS
Experimental: The inhibition of the FLT3 kinase activity was measured with homogeneous, time-resolved fluorescence (HTRF) assays. Recombinant proteins containing the FLT3 kinase domain were purchased from Carna biosciences (Japan). Optimal enzyme, ATP, and substrate concentrations were established with the HTRF KinEASE kit (Cisbio, France) according to the manufacturer’s instructions. The FLT3 enzymes were mixed with serially diluted compounds and peptide substrates in a kinase reaction buffer (50 mM HEPES (pH 7.0), 500 μM ATP, 0.1 mM sodium orthovanadate, 5 mM MgCl2, 1 mM DTT, 0.01% bovine serum albumin (BSA), and 0.02% NaN3). After the addition of the reagents for detection, the TR-FRET signal was measured with a Victor multilabel reader (Perkin Elmer, Waltham, MA, USA). The IC50 was calculated with nonlinear regression using Prism version 5.01 (GraphPad). JAK2, JAK3, cMET, and RET in vitro kinase assays were also carried out using the HTRF assay kit.

[3] = test system: MCF-7 cells; assay: Cell viability / growth inhibition (EZ-Cytox), MCF-7; format: cell-based; settings: Homo sapiens, MCF7; Table 2, 72 h
Experimental: as §1

IC50 [2]: 0.69 ± 0.0599 µM
Compound: COC(=O)c1ccc2c(c1)/C(=C1/Nc3ccccc3/C1=N\OCCN1CCNCC1)C(=O)N2.Cl.Cl [LDD1937, methyl (2Z,3E)-2′-oxo-3-((2-(piperazin-1-yl)ethoxy)imino)-[2,3′-biindolinylidene]-5′-carboxylate dihydrochloride]
GI50 [1]: 1.1 ± 0.14 µM | GI50 [3]: 2.14 ± 0.16 µM
